Source: PubChem BioAssay (NCI)
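A five-concentration, 48-hour dose response in 96-well plates underlies each endpoint, interpolated linearly between surrounding concentrations. At the GI50, growth is halved. TGI denotes the concentration required for complete inhibition of growth.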

Columns and labels:
Test in all cases: NCI tumour cell line growth inhibition, 48 h
786-0 renal = test system: 786-0 renal
A498 renal = test system: A498 renal
A549 NSCLC = test system: A549 NSCLC
ACHN renal = test system: ACHN renal
BT-549 breast = test system: BT-549 breast
CAKI-1 renal = test system: CAKI-1 renal
CCRF-CEM leukemia = test system: CCRF-CEM leukemia
COLO 205 colon = test system: COLO 205 colon
DU-145 prostate = test system: DU-145 prostate
EKVX NSCLC = test system: EKVX NSCLC
HCC-2998 colon = test system: HCC-2998 colon
HCT-116 colon = test system: HCT-116 colon
HCT-15 colon = test system: HCT-15 colon
HL-60(TB) leukemia = test system: HL-60(TB) leukemia
HOP-62 NSCLC = test system: HOP-62 NSCLC
HOP-92 NSCLC = test system: HOP-92 NSCLC
HS 578T breast = test system: HS 578T breast
HT29 colon = test system: HT29 colon
IGROV1 ovarian = test system: IGROV1 ovarian
K-562 leukemia = test system: K-562 leukemia
KM12 colon = test system: KM12 colon
LOX IMVI melanoma = test system: LOX IMVI melanoma
M14 melanoma = test system: M14 melanoma
MALME-3M melanoma = test system: MALME-3M melanoma
MCF7 breast = test system: MCF7 breast
MDA-MB-231 breast = test system: MDA-MB-231 breast
MDA-MB-435 = test system: MDA-MB-435
MOLT-4 leukemia = test system: MOLT-4 leukemia
NCI-H226 lung = test system: NCI-H226 lung
NCI-H23 lung = test system: NCI-H23 lung
NCI-H460 lung = test system: NCI-H460 lung
NCI-H522 lung = test system: NCI-H522 lung
NCI/ADR-RES ovarian = test system: NCI/ADR-RES ovarian
OVCAR-3 ovarian = test system: OVCAR-3 ovarian
OVCAR-4 ovarian = test system: OVCAR-4 ovarian
OVCAR-5 ovarian = test system: OVCAR-5 ovarian
OVCAR-8 ovarian = test system: OVCAR-8 ovarian
PC-3 prostate = test system: PC-3 prostate
RPMI-8226 leukemia = test system: RPMI-8226 leukemia
RXF 393 renal = test system: RXF 393 renal
SF-268 CNS = test system: SF-268 CNS
SF-295 CNS = test system: SF-295 CNS
SF-539 CNS = test system: SF-539 CNS
SK-MEL-2 melanoma = test system: SK-MEL-2 melanoma
SK-MEL-28 melanoma = test system: SK-MEL-28 melanoma
SK-MEL-5 melanoma = test system: SK-MEL-5 melanoma
SK-OV-3 ovarian = test system: SK-OV-3 ovarian
SN12C renal = test system: SN12C renal
SNB-19 CNS = test system: SNB-19 CNS
SNB-75 CNS = test system: SNB-75 CNS
SR leukemia = test system: SR leukemia
SW-620 colon = test system: SW-620 colon
T-47D breast = test system: T-47D breast
TK-10 renal = test system: TK-10 renal
U251 CNS = test system: U251 CNS
UACC-257 melanoma = test system: UACC-257 melanoma
UACC-62 melanoma = test system: UACC-62 melanoma
UO-31 renal = test system: UO-31 renal

## N#CSc1c[nH]c2cccc(/C=C/C(=O)/C=C(O)/C=C/c3cccc4[nH]cc(SC#N)c34)c12
786-0 renal
  GI50: 684 nM
  TGI: 2140 nM
A498 renal
  GI50: 1030 nM
  TGI: 4270 nM
A549 NSCLC
  GI50: 353 nM
  TGI: 2780 nM
ACHN renal
  GI50: 351 nM
  TGI: 1040 nM
BT-549 breast
  GI50: 500 nM
  TGI: 1630 nM
CAKI-1 renal
  GI50: 609 nM
  TGI: 1560 nM
CCRF-CEM leukemia
  GI50: 159 nM
  TGI: 6470 nM
COLO 205 colon
  GI50: 423 nM
  TGI: 1070 nM
DU-145 prostate
  GI50: 484 nM
  TGI: 986 nM
EKVX NSCLC
  GI50: 285 nM
  TGI: 2130 nM
HCC-2998 colon
  GI50: 1200 nM
  TGI: 4560 nM
HCT-116 colon
  GI50: 109 nM
  TGI: 421 nM
HCT-15 colon
  GI50: 186 nM
  TGI: 895 nM
HL-60(TB) leukemia
  GI50: 437 nM
  TGI: 1750 nM
HOP-62 NSCLC
  GI50: 1150 nM
  TGI: 4350 nM
HOP-92 NSCLC
  GI50: 510 nM
  TGI: 1270 nM
HS 578T breast
  GI50: 779 nM
  TGI: 9480 nM
HT29 colon
  GI50: 496 nM
  TGI: 2050 nM
IGROV1 ovarian
  GI50: 460 nM
  TGI: 1580 nM
K-562 leukemia
  GI50: 148 nM
  TGI: > 33300 nM
KM12 colon
  GI50: 351 nM
  TGI: 998 nM
LOX IMVI melanoma
  GI50: 148 nM
  TGI: 547 nM
M14 melanoma
  GI50: 437 nM
  TGI: 1110 nM
MALME-3M melanoma
  GI50: 520 nM
  TGI: 1070 nM
MCF7 breast
  GI50: 254 nM
  TGI: 1450 nM
MDA-MB-231 breast
  GI50: 553 nM
  TGI: 1210 nM
MDA-MB-435
  GI50: 542 nM
  TGI: 1420 nM
MOLT-4 leukemia
  GI50: 322 nM
  TGI: 1480 nM
NCI-H226 lung
  GI50: 607 nM
  TGI: 1340 nM
NCI-H23 lung
  GI50: 426 nM
  TGI: 1890 nM
NCI-H460 lung
  GI50: 228 nM
  TGI: 899 nM
NCI-H522 lung
  GI50: 93 nM
  TGI: 470 nM
NCI/ADR-RES ovarian
  GI50: 2720 nM
  TGI: > 33300 nM
OVCAR-3 ovarian
  GI50: 225 nM
  TGI: 1090 nM
OVCAR-4 ovarian
  GI50: 216 nM
  TGI: 1720 nM
OVCAR-5 ovarian
  GI50: 714 nM
  TGI: 2040 nM
OVCAR-8 ovarian
  GI50: 369 nM
  TGI: > 17500 nM
PC-3 prostate
  GI50: 136 nM
  TGI: 1770 nM
RPMI-8226 leukemia
  GI50: 128 nM
  TGI: 900 nM
RXF 393 renal
  GI50: 326 nM
  TGI: 1000 nM
SF-268 CNS
  GI50: 528 nM
  TGI: 1860 nM
SF-295 CNS
  GI50: 746 nM
  TGI: 2290 nM
SF-539 CNS
  GI50: 559 nM
  TGI: 1360 nM
SK-MEL-2 melanoma
  GI50: 829 nM
  TGI: 1930 nM
SK-MEL-28 melanoma
  GI50: 495 nM
  TGI: 1150 nM
SK-MEL-5 melanoma
  GI50: 467 nM
  TGI: 982 nM
SK-OV-3 ovarian
  GI50: 1320 nM
  TGI: 5230 nM
SN12C renal
  GI50: 364 nM
  TGI: 1570 nM
SNB-19 CNS
  GI50: 649 nM
  TGI: 3200 nM
SNB-75 CNS
  GI50: 670 nM
  TGI: 2680 nM
SR leukemia
  GI50: 129 nM
  TGI: > 33300 nM
SW-620 colon
  GI50: 151 nM
  TGI: 555 nM
T-47D breast
  GI50: 173 nM
  TGI: 2270 nM
TK-10 renal
  GI50: 756 nM
  TGI: 2510 nM
U251 CNS
  GI50: 185 nM
  TGI: 1140 nM
UACC-257 melanoma
  GI50: 944 nM
  TGI: 3380 nM
UACC-62 melanoma
  GI50: 400 nM
  TGI: 1630 nM
UO-31 renal
  GI50: 197 nM
  TGI: 652 nM
